Assay results reported in publication PMC5573830 (The Journal of Veterinary Medical Science, 2017).

Target: rTgAPN2 (recombinant aminopeptidase N2, TgAPN2) (Toxoplasma gondii, UniProt A0A7J6K0L4)
Test: residual H-Ala-MCA hydrolysis, fluorescence
Format: biochemical
Conditions: 30 min pre-incubation at 37 °C, substrate H-Ala-MCA

CC(C)C[C@H](NC(=O)[C@@H](O)[C@H](N)Cc1ccccc1)C(=O)O [bestatin]
residual enzyme activity (%): The activity of rTgAPN2 was reduced in a dose-dependent manner in the presence of bestatin or amastatin
